Measured values reported in patent US20150296780A1, “MOLLUSCICIDE” (Syngenta Participations AG, priority 2008, published 2015).

Experiments:
Type in all cases: in vivo
Deroceras reticulatum [1] = assay: Forced ingestion study on D. reticulatum (Example 1); details: for Number of slugs Affected / Number of slugs Dead / Number of slugs Healthy: of 20 slugs
Experimental: Forced ingestion studies were setup using the Field Slug, Deroceras reticulatum. A formulation containing the strobilurin azoxystrobin was injected directly into the gut of the slugs. Details of the formulation (Dynasty® 100FS) are: […]
Slugs were field-collected, and starved for 48 hours prior to forced ingestion studies. Individual slugs were weighed and anaesthetized using carbon dioxide for 10 to 20 minutes. Test solutions were incorporated into an agar jelly (1.0% w/v) to reduce the risk of regurgitation. For each slug, ten ul aliquots of warm agar mix were injected into the buccal cavity using a fine glass micro-syringe and gently eased into the slug crop. Individual slugs were then placed into labelled Petri dishes lined with moist, unbleached, absorbent paper. For each treatment, 20 slugs were injected. An untreated control of warm agar gel was injected for comparison purposes.
Treated slugs were maintained under controlled environmental conditions (12 hour photoperiod, 15° C., 90% relative humidity), and slug health assessments recorded over the three subsequent days. Slug health was classified into one of the following categories: • Healthy: showing no symptoms • Affected: showing some symptoms of poisoning, excessive mucus production/deformity • Dead

Deroceras reticulatum [2] = assay: Forced ingestion trial of Deroceras reticulatum using various strobilurin compounds (Example 2); details: for slug mortality (in words): 0.5 mg a.i./slug
Experimental: (§1) Adult D. reticulatum were field-collected from an irrigated plot of mixed herbage and maintained in plastic boxes lined with moist, unbleached, absorbent paper and under controlled environmental conditions (12 hour photoperiod, 10° C., 90% RH). Slugs were fed ad. lib. on wheat grain and a mixture of fresh foliage for a period of up to, but not exceeding, one week prior to testing. Slugs were then starved for a period of 48 h before treatment.
(§2) Individual slugs were weighed and anaesthetized using CO2 for a period of 10-20 minutes. Test solutions were incorporated into a warm agar jelly (1.0% w/v) to reduce the risk of regurgitation. Twenty μl aliquots of warm agar mix was then injected into the buccal cavity of a single slug using a fine glass micro-syringe and gently eased into the slug crop. Individual slugs were then placed into labelled Petri dishes lined with moist, unbleached, absorbent paper. Following application of treatments, slugs were maintained under controlled environmental conditions (12 hr photoperiod, 10° C., 90% RH), and slug health recorded over the subsequent three days. Slug health was classified into one of four categories: • Healthy (showing no symptoms) • Affected (showing some symptoms of poisoning, excessive mucus production/deformity) • Moribund (severely affected/paralysed, unable to move in response to gentle prodding) • Dead
For each treatment, 20 slugs were injected. […] The results are shown in Table 3, presented as a percentage of the total number of slugs tested for each treatment.

Arion distinctus [3] = assay: Forced ingestion trial of azoxystrobin (FS formulation) against various slug species (Example 3); details: 100FS formulation
Experimental: as §1, §2
(§3) The methods used in this trial were the same as those described in Example 2, except that the following slug species were collected and tested: Deroceras reticulatum, Anion distinctus, Anion fasciatus and Tandonia budapestensis
(§4) For each treatment, 20 slugs were injected. […] The results are shown in Table 5, presented as a percentage of the total number of slugs tested for each treatment.

Arion fasciatus [4] = assay: as above; details: 100FS formulation
Experimental: as §1, §2, §3, §4

Tandonia budapestensis [5] = assay: as above; details: 100FS formulation
Experimental: as §1, §2, §3, §4

Arion distinctus [6] = assay: Forced ingestion trial of azoxystrobin (SC formulation) against various slug species (Example 4); details: 250SC formulation
Experimental: as §1, §2, §3
(§5) For each treatment, at least 20 slugs were injected. […] The results are shown in Table 7, presented as a percentage of the total number of slugs tested for each treatment.

Arion fasciatus [7] = assay: as above; details: 250SC formulation
Experimental: as §1, §2, §3, §5

Deroceras reticulatum [8] = assay: as above; details: 250SC formulation
Experimental: as §1, §2, §3, §5

Tandonia budapestensis [9] = assay: as above; details: 250SC formulation
Experimental: as §1, §2, §3, §5

D. reticulatum = assay: Tests to establish potential effect of surfactants on molluscicidal activity, forced ingestion (Example 6)
Experimental: as §1, §2
The methods used in this trial were the same as those described in Example 2. The treatments tested are listed in Table 10, and results are in Table 11, presented as a percentage of the total number of slugs tested for each treatment. For each treatment 20 slugs were tested. For ease of comparison, the concentrations of each treatment applied were equivalent to the amount of each component that would be applied in a treatment of Amistar® at a rate of 0.1 mg a.i./slug.

Deroceras reticulatum [10] = assay: Forced ingestion trial of azoxystrobin (FS formulation) and picoxystrobin against various slug species (Example 3)
Experimental: as §1
as §2, with “Dead […]” for “Dead”

[11] = 0.0001 mg azoxystrobin/slug, 24 hours
[12] = 0.0001 mg azoxystrobin/slug, 48 hours
[13] = 0.0001 mg azoxystrobin/slug, 72 hours
[14] = 0.001 mg azoxystrobin/slug, 24 hours
[15] = 0.001 mg azoxystrobin/slug, 48 hours
[16] = 0.001 mg azoxystrobin/slug, 72 hours
[17] = 0.01 mg azoxystrobin/slug, 24 hours
[18] = 0.01 mg azoxystrobin/slug, 48 hours
[19] = 0.01 mg azoxystrobin/slug, 72 hours
[20] = 0.1 mg azoxystrobin/slug, 24 hours
[21] = 0.1 mg azoxystrobin/slug, 48 hours
[22] = 0.1 mg azoxystrobin/slug, 72 hours
[23] = 1 mg azoxystrobin/slug, 24 hours
[24] = 1 mg azoxystrobin/slug, 48 hours
[25] = 1 mg azoxystrobin/slug, 72 hours
[26] = 0.1 mg a.i./slug, 72 hours after forced ingestion

CO/C=C(/C(=O)OC)c1ccccc1Oc1cc(Oc2ccccc2C#N)ncn1 [azoxystrobin]
Number of slugs Affected (Deroceras reticulatum [1]; [11]): 0
Number of slugs Dead (Deroceras reticulatum [1]; [11]): 0
Number of slugs Healthy (Deroceras reticulatum [1]; [11]): 20
Number of slugs Affected (Deroceras reticulatum [1]; [12]): 0
Number of slugs Dead (Deroceras reticulatum [1]; [12]): 0
Number of slugs Healthy (Deroceras reticulatum [1]; [12]): 20
Number of slugs Affected (Deroceras reticulatum [1]; [13]): 0
Number of slugs Dead (Deroceras reticulatum [1]; [13]): 0
Number of slugs Healthy (Deroceras reticulatum [1]; [13]): 20
Number of slugs Affected (Deroceras reticulatum [1]; [14]): 4
Number of slugs Dead (Deroceras reticulatum [1]; [14]): 0
Number of slugs Healthy (Deroceras reticulatum [1]; [14]): 16
Number of slugs Affected (Deroceras reticulatum [1]; [15]): 2
Number of slugs Dead (Deroceras reticulatum [1]; [15]): 4
Number of slugs Healthy (Deroceras reticulatum [1]; [15]): 14
Number of slugs Affected (Deroceras reticulatum [1]; [16]): 2
Number of slugs Dead (Deroceras reticulatum [1]; [16]): 4
Number of slugs Healthy (Deroceras reticulatum [1]; [16]): 14
Number of slugs Affected (Deroceras reticulatum [1]; [17]): 6
Number of slugs Dead (Deroceras reticulatum [1]; [17]): 2
Number of slugs Healthy (Deroceras reticulatum [1]; [17]): 12
Number of slugs Affected (Deroceras reticulatum [1]; [18]): 6
Number of slugs Dead (Deroceras reticulatum [1]; [18]): 6
Number of slugs Healthy (Deroceras reticulatum [1]; [18]): 8
Number of slugs Affected (Deroceras reticulatum [1]; [19]): 6
Number of slugs Dead (Deroceras reticulatum [1]; [19]): 6
Number of slugs Healthy (Deroceras reticulatum [1]; [19]): 8
Number of slugs Affected (Deroceras reticulatum [1]; [20]): 2
Number of slugs Dead (Deroceras reticulatum [1]; [20]): 16
Number of slugs Healthy (Deroceras reticulatum [1]; [20]): 2
Number of slugs Affected (Deroceras reticulatum [1]; [21]): 0
Number of slugs Dead (Deroceras reticulatum [1]; [21]): 18
Number of slugs Healthy (Deroceras reticulatum [1]; [21]): 2
Number of slugs Affected (Deroceras reticulatum [1]; [22]): 0
Number of slugs Dead (Deroceras reticulatum [1]; [22]): 18
Number of slugs Healthy (Deroceras reticulatum [1]; [22]): 2
Number of slugs Affected (Deroceras reticulatum [1]; [23]): 0
Number of slugs Dead (Deroceras reticulatum [1]; [23]): 20
Number of slugs Healthy (Deroceras reticulatum [1]; [23]): 0
Number of slugs Affected (Deroceras reticulatum [1]; [24]): 0
Number of slugs Dead (Deroceras reticulatum [1]; [24]): 20
Number of slugs Healthy (Deroceras reticulatum [1]; [24]): 0
Number of slugs Affected (Deroceras reticulatum [1]; [25]): 0
Number of slugs Dead (Deroceras reticulatum [1]; [25]): 20
Number of slugs Healthy (Deroceras reticulatum [1]; [25]): 0
activity against D. reticulatum slugs (in words) (Deroceras reticulatum [1]; efficacy increases with concentration and with time): active against D. reticulatum slugs
mean concentration that kills 99% of the population (probit analysis) (Deroceras reticulatum [2]; Deroceras reticulatum, treatments 1 to 4 (Amistar 250SC)): 0.068 mg a.i./slug
killing of slugs (in words) (Deroceras reticulatum [2]; treatments 1 to 4): highly effective at killing slugs
efficacy against slug species (in words) (Arion distinctus [3]; Arion distinctus): effective against all three species
concentration to kill approximately 99% of the population (probit analysis) (Arion distinctus [3]; A. distinctus): 0.183 mg a.i./slug
efficacy against slug species (in words) (Arion fasciatus [4]; Arion fasciatus): effective against all three species
concentration to kill approximately 99% of the population (probit analysis) (Arion fasciatus [4]; A. fasciatus): 0.904 mg a.i./slug
efficacy against slug species (in words) (Tandonia budapestensis [5]; Tandonia budapestensis): effective against all three species
concentration to kill approximately 99% of the population (probit analysis) (Tandonia budapestensis [5]; T. budapestensis): 0.163 mg a.i./slug
efficacy against slug species (in words) (Arion distinctus [6]): effective against all four slug species tested
efficacy against slug species (in words) (Arion fasciatus [7]): effective against all four slug species tested
efficacy against slug species (in words) (Deroceras reticulatum [8]): effective against all four slug species tested
efficacy against slug species (in words) (Tandonia budapestensis [9]): effective against all four slug species tested
Affected % (D. reticulatum; [26]): 12.5%
Dead or Moribund % (D. reticulatum; [26]): 42.5%
Healthy % (D. reticulatum; [26]): 45%
slug mortality (D. reticulatum; azoxystrobin additionally present with surfactant/formulation (treatment 4)): 100%

CO/N=C(/C1=NOCCO1)c1ccccc1Oc1ncnc(Oc2ccccc2Cl)c1F [fluoxastrobin]
slug mortality (in words) (Deroceras reticulatum [2]): significant levels of slug mortality

CO/C=C(/C(=O)OC)c1ccccc1COc1cccc(C(F)(F)F)n1 [picoxystrobin]
mean concentration that kills 99% of the population (probit analysis) (Deroceras reticulatum [10]; Deroceras reticulatum, treatments 1 to 4 (Acanto 250SC)): 0.198 mg a.i./slug
killing of slugs (in words) (Deroceras reticulatum [10]; doses equivalent to 0.05 mg a.i./slug or more): highly effective at killing slugs

CON=C(C(=O)OC)c1ccccc1CON=C(C)c1cccc(C(F)(F)F)c1 [trifloxystrobin]
slug mortality (in words) (Deroceras reticulatum [2]): significant levels of slug mortality
